Experimental data reported in EP0819121B1, “TRICYCLIC COMPOUNDS USEFUL FOR INHIBITION OF G-PROTEIN FUNCTION AND FOR TREATMENT OF PROLIFERATIVE DISEASES” (SCHERING CORPORATION, priority 1995, dated 1996).
Read-outs that look alike come from different tables or passages of the source.

Tests used:
[1] = target: farnesyl protein transferase (Homo sapiens, UniProt P49354+P49356); test: FPT inhibition, in vitro enzyme assay (SPA, transfer of [3H]farnesyl to biotinylated Ras-peptide; or methods of WO 95/10516); format: biochemical; details: values given as ranges
Protocol: (§1) In some assays, FPT IC50 (inhibition of farnesyl protein transferase, in vitro enzyme assay) is determined by the methods described in WO 95/10516. COS Cell IC50 (Cell-Based Assay) and Cell Mat assay are determined by the methods described in WO 95/10516. GGPT IC50 (geranylgeranyl protein transferase, in vitro enzyme assay) and in vitro tumor activity can be determined by the methods disclosed in WO 95/10516.
In some assays, the inhibition of famesyi protein transferase was assayed by measuring the transfer of [^3H]farnesyl from [^3H]famesylpyrophosphate to biotinylated Ras-peptide (biotin-KKSKTKCVIM) using the conditions described below for each 96-well plate to be tested.
An assay buffer is prepared consisting of 40 mM Hepes, pH 7.5; 5 mM dithiothreitol; 20 mM magnesium chloride and 0.01 (v/v)% Igepal nonionic detergent.
A SPA (scintillation proximity assay) bead suspension is prepared consisting of 50 mg of Streptavidin SPA beads (Amersham Life-Science) suspended in 2.5 mL of PBS (phosphate buffered saline). Immediately prior to running the assay a stop solution is prepared consisting of 480 µL of the SPA bead suspension mixed with 6720 µL of a solution consisting of 250 mM EDTA (pH 8.0) and 0.5% Bovine Serium Albumin (Fraction V, 96-99% albumin).
(§2) In some assays, to determine FPT IC50, an assay mixture is prepared consisting of 480 µL of assay buffer and 3052.8 µL of water. This mixture is vortexed to homogeneity and 48 µL of the Ras peptide is added. The mixture is vortexed and 15.36 µL of FPP and 3.84 µL of [^3H]FPP are added and the mixture vortexed again. 37.5 µL of this assay mixture and 2.5µL of a DMSO solution (at test concentration) of the compound being tested are then added to each well of a Costar polypropylene U-bottom microtiter plate. The plate is sonicated for 15 minutes at 37°C and then shaken for 15 minutes on a plate shaker. 10 µL of the enzyme (recombinant Human farnesyl protein transferase) is added to each well using a Beckman Biomek 2000. The plate is incubated at room temperature for 20 minutes and then quenched with 75 µL of the stop solution. 100 µL of the quenched reaction mixture from each well is then transferred to a Wallac crosstalk-free microtiter plate using a Beckman Biomek 2000. Radioactivity is measured in a Wallac 1450 Microbeta plus liquid scintillation counter. Percent inhibition is calculated relative to an uninhibited control.
as §2, with “farnesyl transferase inhibition,” for “FPT IC50,”, “buffer,” for “buffer and”, “water and 240 µL of DMSO.” for “water.”, “40” for “37.5”, “is” for “and 2.5µL of a DMSO solution (at test concentration) of the compound being tested are”, “plate, each well of which contains a dry sample of the compound being tested.” for “plate.”

COS Cells = test: COS cell assay, inhibition of RAS processing (cell-based, methods of WO 95/10516)
Protocol: as §1

Tumor Cells = test: Cell Mat assay, cell growth inhibition, tumor cells (methods of WO 95/10516); format: cell-based
Protocol: as §1

Normal Cells = test: Cell Mat assay, cell growth inhibition, normal cells (methods of WO 95/10516); format: cell-based
Protocol: as §1

[2] = read-out: Activity in COS Cells Inhibition of RAS Processing IC50 in µM
[3] = read-out: Cell Growth Inhibition MAT Assay Tumor Cells IC50
[4] = read-out: Cell Growth Inhibition MAT Assay Normal Cells IC50
[5] = read-out: Activity in COS Cells Inhibition of RAS Processing IC50

Compound | FPT Inhibition IC50 [1] [nM] | other results
N[C@@H](CS)C(=O)N1CCN(C2c3ccc(Cl)cc3CCc3cc(Br)cnc32)CC1 (some centres unmarked) [EX 21, Step B] | 10 to 10000 | 
O=C(CC1CN(C2c3ccc(Cl)cc3CCc3cc(Br)cnc32)CCN1C(=O)Cc1ccncc1)NC1CC1 (centres unmarked) [EX 54] | 10 to 10000 | 
O=C(Cc1ccncc1)N1CCN(C2c3ccc(Cl)cc3CCc3cc(Br)cnc32)CC1CO (centres unmarked) [EX 50] | 10 to 10000 | 
COCC[C@H]1CN(C2c3ccc(Cl)cc3CCc3cc(Br)cnc32)CCN1C(=O)Cc1cc[n+]([O-])cc1 (some centres unmarked) [Ex 38] | 10 to 10000 | IC50 (COS Cells; [2]): 0.01 to 10 µM
COCC[C@H]1CN(C2c3ccc(Cl)cc3CCc3cc(Br)cnc32)CCN1C(=O)CC1CCNCC1 (some centres unmarked) [EX 39, Step B] | 10 to 10000 | 
CC(C)NC(=O)C1CN(C2c3ccc(Cl)cc3CCc3cc(Br)cnc32)CCN1C(=O)Cc1cccnc1 (centres unmarked) [EX 32-B] | 10 to 10000 | 
O=C(NCc1cccnc1)C1CN(C2c3ccc(Cl)cc3CCc3cc(Br)cnc32)CCN1C(=O)CCc1ccccc1 (centres unmarked) [EX 43] | 10 to 10000 | 
CNC(=O)C1CN(C2c3ccc(Cl)cc3CCc3cc(Br)cnc32)CCN1C(=O)Cc1ccncc1 (centres unmarked) [EX 55] | 10 to 10000 | 
COc1ccc(CSC[C@H](N)C(=O)N2CCC(=C3c4ccc(Cl)cc4CCc4cccnc43)CC2)cc1 [EX 31] | 10 to 10000 | IC50 (Tumor Cells; [3]): 12.5 µM; IC50 (Normal Cells; [4]): 18 µM
CNC(=O)CC1CN(C2c3ccc(Cl)cc3CCc3cc(Br)cnc32)CCN1C(=O)Cc1ccncc1 (centres unmarked) [EX 51] | 10 to 10000 | 
CNC(=O)C1CN(C2c3ccc(Cl)cc3CCc3cc(Br)cnc32)CCN1C(=O)Cc1cccnc1 (centres unmarked) [EX 32-A] | 10 to 10000 | 
CC(C)NC(=O)CC1CN(C2c3ccc(Cl)cc3CCc3cc(Br)cnc32)CCN1C(=O)Cc1cccnc1 (centres unmarked) [EX 34] | 10 to 10000 | 
N[C@@H](CS)CN1CCN(C2c3ccc(Cl)cc3CCc3cc(Br)cnc32)CC1 (some centres unmarked) [EX1] |  | IC50 [1]: > 100000 nM
O=C(NC1CC1)C1CN(C2c3ccc(Cl)cc3CCc3cc(Br)cnc32)CCN1C(=O)Cc1ccncc1 (centres unmarked) [EX 47] | 10 to 10000 | 
CCCC[C@H]1CN(C2c3ccc(Cl)cc3CCc3cc(Br)cnc32)CCN1C(=O)CC1CCN(C(N)=O)CC1 (some centres unmarked) [EX 37, Step C] | 10 to 10000 | IC50 (Tumor Cells; [3]): 3.1 µM; IC50 (COS Cells; [5]): 0.01 to 10 µM; IC50 (Normal Cells; [4]): 18 µM
COCC[C@H]1CN(C2c3ccc(Cl)cc3CCc3cc(Br)cnc32)CCN1C(=O)CC1CCN(C(N)=O)CC1 (some centres unmarked) [EX 39, Step C] | 10 to 10000 | IC50 (Tumor Cells; [3]): < 1.6 µM; IC50 (COS Cells; [5]): 0.01 to 10 µM; IC50 (Normal Cells; [4]): > 25 µM
COc1ccc(CSC[C@H](NC(=O)OC(C)(C)C)C(=O)N2CCC(=C3c4ccc(Cl)cc4CCc4cccnc43)CC2)cc1 [EX 30] | 10 to 10000 | IC50 (Tumor Cells; [3]): > 50 µM; IC50 (Normal Cells; [4]): > 50 µM
N[C@@H](CS)CN1CCC(=C2c3ccc(Cl)cc3CCc3cc(Br)cnc32)CC1 [EX 56A] |  | IC50 [1]: > 100000 nM
CCOC(=O)C1CN(C2c3ccc(Cl)cc3CCc3cc(Br)cnc32)CCN1C(=O)Cc1cccnc1 (centres unmarked) [EX 33] | 10 to 10000 | 
CN(Cc1ccccc1[N+](=O)[O-])C(=O)C1CN(C2c3ccc(Cl)cc3CCc3cc(Br)cnc32)CCN1C(=O)Cc1cccnc1 (centres unmarked) [EX 48] |  | IC50 [1]: 10000 to 100000 nM
CC(C)NC(=O)C1CN(C2c3ccc(Cl)cc3CCc3cc(Br)cnc32)CCN1C(=O)Cc1ccncc1 (centres unmarked) [EX 32-C] | 10 to 10000 | 
CC(C)N(C)C(=O)C1CN(C2c3ccc(Cl)cc3CCc3cc(Br)cnc32)CCN1C(=O)Cc1ccncc1 (centres unmarked) [EX 56] | 10 to 10000 | 
N[C@@H](CSSC[C@H](N)C(=O)N1CCN(C2c3ccc(Cl)cc3CCc3cc(Br)cnc32)CC1)C(=O)N1CCN(C2c3ccc(Cl)cc3CCc3cc(Br)cnc32)CC1 (some centres unmarked) [EX 20, Step B] | 10 to 10000 | 
CCCC[C@H]1CN(C2c3ccc(Cl)cc3CCc3cc(Br)cnc32)CCN1C(=O)Cc1cc[n+]([O-])cc1 (some centres unmarked) [EX 36] | 10 to 10000 | IC50 (Tumor Cells; read-out: Cell Growth Inhibition MAT Assay Tumor Cells IC50 in µM): 1.6 µM; IC50 (COS Cells; [2]): 0.01 to 10 µM; IC50 (Normal Cells; read-out: Cell Growth Inhibition MAT Assay Normal Cells IC50 in µM): > 25 µM
CNC(=O)CC1CN(C2c3ccc(Cl)cc3CCc3cc(Br)cnc32)CCN1C(=O)Cc1cccnc1 (centres unmarked) [EX 46] | 10 to 10000 | 
CCCCNC(=O)C1CN(C2c3ccc(Cl)cc3CCc3cc(Br)cnc32)CCN1C(=O)OC1CCN(C(C)=O)CC1 (centres unmarked) [EX 44] | 10 to 10000 | 
CCCCNC(=O)C1CN(C2c3ccc(Cl)cc3CCc3cc(Br)cnc32)CCN1C(=O)CC1CCN(C(N)=O)CC1 (centres unmarked) [EX 41] | 10 to 10000 | 
